{
  "source": "patent US20220118117A1",
  "about": "“MODULATORS OF METABOTROPIC GLUTAMATE RECEPTOR 4” (The General Hospital Corporation, priority 2019, published 2022)",
  "key": {"[1]": {"experiment": "PET imaging of [18F]15, baseline", "format": "in vivo, Sprague Dawley rats", "protocol": "PET Imaging of [^18F]15 in Rats. Altogether 24 normal male Sprague Dawley rats were used for the imaging studies comprising 15 baseline studies and 15 blocking studies. Rats were anaesthetized with isoflurane/nitrous oxide (1.0-1.5% isoflurane, with oxygen flow of 1-1.5 L/min), and catheter was installed into tail vein for the administration of [^18F]15. Dynamic volumetric PET data was acquired with a PET-CT scanner for 60 min (Triumph-II, Tri-Foil Imaging, Northridge, Calif.). The vital signals such as heart rate and respiration rate were monitored during scanning period. PET data acquisition was started immediately after administration of radioactivity with the dose range of 18-34 MBq depending on the size of the rat followed by CT imaging to obtain anatomical information and data for attenuation correction of PET data. PET data was processed by using maximum-likelihood expectation-maximization (MLEM) algorithm with 30 iterations to dynamic volumetric images, and corrected for uniformity, scatter, and attenuation. The CT data was processed by the modified Feldkamp algorithm using matrix volumes of 512×512×512 and pixel size of […]. Co-registration of CT and PET images and analysis of PET images were carried out using PMOD3.2 software (PMOD Technology, Zurich, Switzerland)."}, "[2]": {"experiment": "ex vivo biodistribution of [18F]15", "format": "in vivo, Sprague Dawley rats", "details": "rat, iv", "protocol": "Ex vivo Studies of Biodistribution. For biodistribution studies the normal male Sprague Dawley rats were anesthetized with isoflurane/nitrous oxide (1-1.5% isoflurane) to install catheter into the tail vain for administration of radioactivity ([^18F]15, 22±3 MBq, iv). Total of 15 rats in deep anesthesia (isoflurane 4% and cervical dislocation) were sacrificed in a group of three at five different time points (5, 10, 20, 30, and 60 min) after injection of [^18F]15. Major organs including lung, heart, liver, spleen, kidney, muscle, midbrain, cortex, cerebellum and blood were harvested to determine radioactivity. The tissue samples were weighted, and the radioactivity was measured with the standard samples of [^18F]15 using Wizard2 2480, Perkin Elmer, Calif. Radioactivity of the tissue samples was determined as percent of the injected activity per gram of the tissue."}},
  "data": [
    {"smiles": "[2H]C([2H])([18F])Sc1cc(NC(=O)c2ccccn2)ccc1Cl", "note": "[[^18F]15]", "values": [
      {"measurement": "BBB crossing", "setting": "[1]; PET, rat brain", "result": "crosses BBB"},
      {"measurement": "time of highest accumulation in the thalamus", "setting": "[1]; after administration of the ligand", "result": "about 2 min"},
      {"measurement": "maximum average uptake in the thalamus", "setting": "[1]; time interval of 1-10 min after administering", "result": "1.77±0.26", "unit": "% ID/cc"},
      {"measurement": "accumulation in brain", "setting": "[2]; at 10 min", "result": "0.41±0.18", "unit": "% ID/g"},
      {"measurement": "accumulation in heart", "setting": "[2]; at 20 min", "result": "0.50±0.08", "unit": "% ID/g"},
      {"measurement": "accumulation in liver", "setting": "[2]; at 20 min", "result": "1.33±0.12", "unit": "% ID/g"},
      {"measurement": "accumulation in lungs", "setting": "[2]; at 20 min", "result": "0.58±0.17", "unit": "% ID/g"},
      {"measurement": "accumulation in kidneys", "setting": "[2]; at 30 min", "result": "0.93±0.57", "unit": "% ID/g"}
    ]}
  ]
}
